Data: patent US10894792B2, “Pesticidally active heterocyclic derivatives with sulfur containing substituents” (SYNGENTA PARTICIPATIONS AG, priority 2017, dated 2021)

Legend:
Assay type in all cases: in vivo
[1] = test system: Myzus persicae; experiment: Activity against Myzus persicae (green peach aphid), roots of pea seedlings in test solution; details: 144 h, test rate of 24 ppm, roots of infested pea seedlings in test solution, 6 days
Description: Roots of pea seedlings infested with an aphid population of mixed ages were placed directly in the aqueous test solutions prepared from 10′000 DMSO stock solutions. The samples were assessed for mortality 6 days after placing seedlings in test solutions.

[2] = test system: Myzus persicae; experiment: Activity against Myzus persicae (green peach aphid), sprayed sunflower leaf discs; details: foliar, 144 h, application rate of 200 ppm, aphid population of mixed ages, 6 days after infestation
Description: Sunflower leaf discs were placed on agar in a 24-well microtiter plate and sprayed with aqueous test solutions prepared from 10′000 ppm DMSO stock solutions. After drying, the leaf discs were infested with an aphid population of mixed ages. The samples were assessed for mortality 6 days after infestation.

[3] = test system: Euschistus heros; experiment: Activity against Euschistus heros (neotropical brown stink bug); details: 120 h, application rate of 200 ppm, sprayed soybean leaf, N-2 nymphs, 5 days after infestation, read-out: effect in at least one of the two categories (mortality or growth inhibition)
Description: Soybean leaf on agar in 24-well microtiter plates were sprayed with aqueous test solutions prepared from 10′000 ppm DMSO stock solutions. After drying the leaf were infested with N-2 nymphs. The samples were assessed for mortality and growth inhibition in comparison to untreated samples 5 days after infestation.

[4] = test system: Plutella xylostella; experiment: Activity against Plutella xylostella (diamond back moth), artificial diet; details: 120 h, application rate of 200 ppm, L2 larvae on artificial diet, 5 days after infestation, read-out: effect in at least one of the two categories (mortality or growth inhibition)
Description: 24-well microtiter plates with artificial diet were treated with aqueous test solutions prepared from 10′000 ppm DMSO stock solutions by pipetting. After drying, the plates were infested with L2 larvae (10 to 15 per well). The samples were assessed for mortality and growth inhibition in comparison to untreated samples 5 days after infestation.

[5] = test system: Bemisia tabaci; experiment: Activity against Bemisia tabaci (cotton white fly); details: foliar, 144 h, application rate of 200 ppm, sprayed cotton leaf discs, adult white flies, 6 days after incubation
Description: Cotton leaf discs were placed on agar in 24-well microtiter plates and sprayed with aqueous test solutions prepared from 10′000 ppm DMSO stock solutions. After drying the leaf discs were infested with adult white flies. The samples were checked for mortality 6 days after incubation.

[6] = test system: Diabrotica Balteata; experiment: Activity against Diabrotica balteata (corn root worm); details: 96 h, application rate of 200 ppm, sprayed maize sprouts, L2 larvae, 4 days after infestation, read-out: effect in at least one of the two categories (mortality or growth inhibition)
Description: Maize sprouts placed onto an agar layer in 24-well microtiter plates were treated with aqueous test solutions prepared from 10′000 ppm DMSO stock solutions by spraying. After drying, the plates were infested with L2 larvae (6 to 10 per well). The samples were assessed for mortality and growth inhibition in comparison to untreated samples 4 days after infestation.

[7] = test system: Frankliniella occidentalis; experiment: Activity against Frankliniella occidentalis (western flower thrips); details: foliar, 168 h, application rate of 200 ppm, sprayed sunflower leaf discs, population of mixed ages, 7 days after infestation
Description: Sunflower leaf discs were placed on agar in 24-well microtiter plates and sprayed with aqueous test solutions prepared from […] stock solutions. After drying the leaf discs were infested with a Frankliniella population of mixed ages. The samples were assessed for mortality 7 days after infestation.

CCS(=O)(=O)c1cc(C(=O)N=S2(=O)CCOCC2)cnc1-c1nc2cc(C(F)(F)F)ncc2n1C [Compound P2, 5-ethylsulfonyl-6-[3-methyl-6-(trifluoromethyl)imidazo[4,5-c]pyridin-2-yl]-N-(4-oxo-1,4-oxathian-4-ylidene)pyridine-3-carboxamide]
≥ 80%: mortality at 24 ppm [1] | mortality at 200 ppm [2] | percent effect (mortality or growth inhibition) at 200 ppm [3]

CCS(=O)(=O)c1cc(C(=O)N=S(=O)(CC)CC)cnc1-c1nc2cc(C(F)(F)F)ncc2n1C [Compound P3]
≥ 80%: mortality at 24 ppm [1] | mortality at 200 ppm [2] | percent effect (mortality or growth inhibition) at 200 ppm [4] | mortality at 200 ppm [5] | percent effect (mortality or growth inhibition) at 200 ppm [3]

CCS(=O)(=O)c1cc(C(=O)N=S(C)C)cnc1-c1nc2cc(C(F)(F)F)ncc2n1C [Compound P5, N-(dimethyl-λ^4-sulfanylidene)-5-ethylsulfonyl-6-[3-methyl-6-(trifluoromethyl)imidazo[4,5-c]pyridin-2-yl]pyridine-3-carboxamide]
≥ 80%: mortality at 24 ppm [1] | mortality at 200 ppm [2] | percent effect (mortality or growth inhibition) at 200 ppm [6] | mortality at 200 ppm [5] | percent effect (mortality or growth inhibition) at 200 ppm [3]

CCS(=O)(=O)c1cc(C(=O)N=S(C)(C)=O)cnc1-c1nc2cc(C(F)(F)F)nnc2n1C [Compound P6, N-[dimethyl(oxo)-λ^6-sulfanylidene]-5-ethylsulfonyl-6-[7-methyl-3-(trifluoromethyl)imidazo[4,5-c]pyridazin-6-yl]pyridine-3-carboxamide]
≥ 80%: mortality at 24 ppm [1] | mortality at 200 ppm [2] | percent effect (mortality or growth inhibition) at 200 ppm [4] | percent effect (mortality or growth inhibition) at 200 ppm [6] | mortality at 200 ppm [5] | percent effect (mortality or growth inhibition) at 200 ppm [3]

CCS(=O)(=O)c1cc(C(=O)N=S(C)(C)=O)ccc1-c1cn2cnc(C(F)(F)F)cc2n1 [Compound P7, N-[dimethyl(oxo)-λ^6-sulfanylidene]-3-ethylsulfonyl-4-[7-(trifluoromethyl)imidazo[1,2-c]pyrimidin-2-yl]benzamide]
≥ 80%: mortality at 24 ppm [1] | mortality at 200 ppm [2] | mortality at 200 ppm [7] | percent effect (mortality or growth inhibition) at 200 ppm [4] | percent effect (mortality or growth inhibition) at 200 ppm [6]

CCS(=O)(=O)c1cc(C(=O)N=S(C)(=O)CC)cnc1-c1nc2cc(C(F)(F)F)nnc2n1C (stereo not shown) [Compound P9, N-(ethyl-methyl-oxo-λ^6-sulfanylidene)-5-ethylsulfonyl-6-[7-methyl-3-(trifluoromethyl)imidazo[4,5-c]pyridazin-6-yl]pyridine-3-carboxamide]
≥ 80%: mortality at 24 ppm [1] | mortality at 200 ppm [2] | mortality at 200 ppm [7] | percent effect (mortality or growth inhibition) at 200 ppm [4] | percent effect (mortality or growth inhibition) at 200 ppm [6] | mortality at 200 ppm [5] | percent effect (mortality or growth inhibition) at 200 ppm [3]

CCS(CC)=NC(=O)c1cnc(-c2nc3cc(C(F)(F)F)ncc3n2C)c(S(=O)(=O)CC)c1 [Compound P10, N-(diethyl-λ^4-sulfanylidene)-5-ethylsulfonyl-6-[3-methyl-6-(trifluoromethyl)imidazo[4,5-c]pyridin-2-yl]pyridine-3-carboxamide]
≥ 80%: mortality at 24 ppm [1] | mortality at 200 ppm [2] | mortality at 200 ppm [7] | percent effect (mortality or growth inhibition) at 200 ppm [4] | mortality at 200 ppm [5] | percent effect (mortality or growth inhibition) at 200 ppm [3]

CCS(=O)(=O)c1cc(C(=O)N=S2(=O)CCC2)cnc1-c1nc2cc(C(F)(F)F)ncc2n1C [Compound P12, 5-ethylsulfonyl-6-[3-methyl-6-(trifluoromethyl)imidazo[4,5-c]pyridin-2-yl]-N-(1-oxothietan-1-ylidene)pyridine-3-carboxamide]
≥ 80%: mortality at 24 ppm [1] | mortality at 200 ppm [2] | percent effect (mortality or growth inhibition) at 200 ppm [4] | mortality at 200 ppm [5]

CCS(=O)(=O)c1cc(C(=O)N=S2(=O)CCOCC2)cnc1-c1nc2cc(C(F)(F)F)cnc2n1C [Compound P17, 5-ethylsulfonyl-6-[3-methyl-6-(trifluoromethyl)imidazo[4,5-b]pyridin-2-yl]-N-(4-oxo-1,4-oxathian-4-ylidene)pyridine-3-carboxamide]
≥ 80%: mortality at 24 ppm [1] | mortality at 200 ppm [2] | percent effect (mortality or growth inhibition) at 200 ppm [4] | percent effect (mortality or growth inhibition) at 200 ppm [3]

CCS(=O)(=O)c1cc(C(=O)N=S(=O)(CC)CC)cnc1-c1nc2cc(C(F)(F)F)nnc2n1C [Compound P18, N-[diethyl(oxo)-λ^6-sulfanylidene]-5-ethylsulfonyl-6-[7-methyl-3-(trifluoromethyl)imidazo[4,5-c]pyridazin-6-yl]pyridine-3-carboxamide]
≥ 80%: mortality at 24 ppm [1] | mortality at 200 ppm [2] | percent effect (mortality or growth inhibition) at 200 ppm [4] | percent effect (mortality or growth inhibition) at 200 ppm [6] | mortality at 200 ppm [5] | percent effect (mortality or growth inhibition) at 200 ppm [3]

CCS(=O)(=O)c1cc(C(=O)N=S(=O)(CC)CC)cnc1-c1nc2cc(C(F)(F)F)cnc2n1C [Compound P19, N-[diethyl(oxo)-λ^6-sulfanylidene]-5-ethylsulfonyl-6-[3-methyl-6-(trifluoromethyl)imidazo[4,5-b]pyridin-2-yl]pyridine-3-carboxamide]
≥ 80%: mortality at 24 ppm [1] | mortality at 200 ppm [2] | mortality at 200 ppm [7] | percent effect (mortality or growth inhibition) at 200 ppm [4] | mortality at 200 ppm [5] | percent effect (mortality or growth inhibition) at 200 ppm [3]

CCS(=O)(=O)c1cc(C(=O)N=S(C)(C)=O)ccc1-c1nc2cc(C(F)(F)F)cnc2n1C [Compound P22, N-[dimethyl(oxo)-λ^6-sulfanylidene]-3-ethylsulfonyl-4-[3-methyl-6-(trifluoromethyl)imidazo[4,5-b]pyridin-2-yl]benzamide]
≥ 80%: mortality at 24 ppm [1] | mortality at 200 ppm [2] | mortality at 200 ppm [7] | percent effect (mortality or growth inhibition) at 200 ppm [4] | percent effect (mortality or growth inhibition) at 200 ppm [6] | mortality at 200 ppm [5] | percent effect (mortality or growth inhibition) at 200 ppm [3]

CCS(=O)(=O)c1cc(C(=O)N=S(=O)(CC)CC)ccc1-c1nc2cc(C(F)(F)F)cnc2n1C [Compound P23, N-[diethyl(oxo)-λ^6-sulfanylidene]-3-ethylsulfonyl-4-[3-methyl-6-(trifluoromethyl)imidazo[4,5-b]pyridin-2-yl]benzamide]
≥ 80%: mortality at 24 ppm [1] | mortality at 200 ppm [2] | percent effect (mortality or growth inhibition) at 200 ppm [4] | percent effect (mortality or growth inhibition) at 200 ppm [6] | mortality at 200 ppm [5] | percent effect (mortality or growth inhibition) at 200 ppm [3]
